As usually defined, the melting point is the temperature of the solid-liquid transition.

The test system of series [1] is E. faecalis. Briefly: MIC, broth dilution method. Format: cell-based. The note with it: for MIC: Enterococcus faecalis, read-out: MIC Anti-Bacterial Activity. Here is the method:
(§1) Antibacterial activity can be determined by several standard methods well known by those skilled in the art, including disc diffusions methods, broth dilution minimal inhibitory concentration (MIC) methods, etc., including the detailed method outlined below. Cultures of bacteria are initially brought up from the freezer by streaking a loopful onto agar plates under the appropriate conditions. For instance stocks are streaked onto chocolate agar and then incubated for 18 hours at 35-37° C. in a 5% CO2 incubator. Five to 10 colonies are picked from the chocolate agar plate for subculture to Brain-Heart Infusion (BHI) broth or Mueller Hinton broth or BHI containing 4% serum and incubated under the appropriate conditions. The ability of the test compound to act as an antimicrobial is determined by the ability to inhibit bacterial, algae, or fungal growth in vitro. The optical density of the culture of organisms in the presence of an active compound is compared to the optical density of the same organism untreated. The activity of the compounds is described as either negative or the lowest concentration inhibiting growth.
(Broth dilution looks for growth in wells or tubes with falling amounts of substance.)

The subject of series [2] is C. diphtheriae. Briefly: MIC, broth dilution method. The format is cell-based. The note with it: for MIC: Corynebacterium diphtheriae, read-out: MIC Anti-Bacterial Activity. The method, then:
as §1

For series [3], the system named is M. catarrhalis. Briefly: MIC, broth dilution method. Format: cell-based. To be noted: for MIC: Moraxella catarrhalis, read-out: MIC Anti-Bacterial Activity. The method, then:
as §1

Series [4] concerns S. epidermidis. Briefly: MIC, broth dilution method. To be noted: for MIC: Staphylococcus epidermidis, read-out: MIC Anti-Bacterial Activity. The format is cell-based. The method, then:
as §1

The test system of series [5] is H. pylori. Briefly: MIC, broth dilution method. Format: cell-based. The method, then:
as §1

Series [6] concerns M. smegimatis. Kind of series: MIC, broth dilution method. Format: cell-based. To be noted: for MIC: read-out: MIC Anti-Bacterial Activity. The method, then: as §1
Series [7] relates to H. influenzae. Briefly: MIC, broth dilution method. Format: cell-based. The note with it: for MIC: Haemophilus influenzae, read-out: MIC Anti-Bacterial Activity. Here is the method:
as §1

Series [8] concerns S. pyogenes. Kind of series: MIC, broth dilution method. The note with it: for MIC: Streptococcus pyogenes, read-out: MIC Anti-Bacterial Activity. The format is cell-based. Here is the method:
as §1

The subject of series [9] is S. pneumoniae. Kind of series: MIC, broth dilution method. Format: cell-based. The note with it: for MIC: Streptococcus pneumoniae, read-out: MIC Anti-Bacterial Activity. Here is the method: as §1
Series [10] deals with S. aureus. Briefly: MIC, broth dilution method. Format: cell-based. To be noted: for MIC: Staphylococcus aureus, read-out: Antibacterial Activity against S. aureus MIC. The method, then: as §1
Series [11] relates to methicillin-resistant Staphylococcus aureus. Briefly: Wound healing model (FIG. 2). The format is in vivo. To be noted: mice, composition applied topically twice daily, sampled 72 hours post-infection. The method, then: (§2) FIG. 2. Efficacy of a composition comprising the compound of Example 9 in the wound healing model. A defined inoculum of approximately 10^5 CFU of methicillin-resistant Staphylococcus aureus in 20 μl culture medium was pipetted into a wound approximately 1 cm^2 created by removal of the epidermis from the shaved backs of mice. After 24 hours, the composition comprising Example 9, placebo control or positive control ointment was applied twice daily. Approximately, seventy two hours post-infection, the wound was sampled and appropriate dilutions plated on nutritive agars for determination of microbial burden. The number of colony forming units (CFU) of methicillin-resistant Staphylococcus aureus per wound is shown.
(§3) The wound healing model, using methods generally known by those skilled in the art, is used to measure the efficacy of topically applied compounds in suitable vehicles against any bacteria, for example, Staphylococcus epidermis, Staphylococcus aureus, Streptococcus pyrogenes, Haemophilus influenzae, or mixtures thereof. By removing several epidermal layers by surgical procedure, a superficial wound of approximately 1 cm^2 was created. About 10^5cfu/20 ul of culture medium of any bacteria, for example, S aureus, was applied to the wound. […]

The subject of series [12] is methicillin-sensitive Staphylococcus aureus. Briefly: Wound healing model (FIG. 1). The note with it: methicillin-susceptible Staphylococcus aureus; mice; composition applied topically twice daily; sampled 72 hours post-infection. The format is in vivo. The method, then: as §2, with “1.” for “2.”, “methicillin-sensitive” for “methicillin-resistant”
as §3

The test system of series [13] is Staphylococcus epidermidis. Briefly: Wound healing model (FIG. 3). The format is in vivo. To be noted: mice, composition applied topically twice daily, sampled 72 hours post-infection. The method, then: as §2, with “3.” for “2.”, “methicillin-sensitive” for “methicillin-resistant”, “epidermis” for “aureus”
as §3

Values after ≈ are worked out from the molar mass of the structure shown.

`CCCCC1CC(c2ccc(O)c(C)c2)(c2ccc(O)c(C)c2)C1` [Example 2, 1,1-Bis(4-hydroxy-3-methylphenyl)-3-n-butyl-cyclobutane] showed a melting point of 135 to 137 °C. For the same molecule, the MIC in series [1] came out at 2 µg/mL (≈ 6.16 µM). The MIC in series [2] came to 1 µg/mL (≈ 3.08 µM). In addition, the MIC in [3] turned out to be 1 µg/mL (≈ 3.08 µM). Further, the MIC in series [4] turned out to be 1 µg/mL (≈ 3.08 µM). In addition, in series [5] (Helicobacter pylori, read-out: MIC Anti-Bacterial Activity), the MIC amounted to 16 µg/mL (≈ 49.3 µM). For the same molecule, in [6], the MIC stood at 2 µg/mL (≈ 6.16 µM). In [7], the MIC is 1 µg/mL (≈ 3.08 µM). In series [8], the MIC was found to be 6 µg/mL (≈ 18.5 µM). Further, the MIC in series [9] worked out at 6 µg/mL (≈ 18.5 µM). Also, the MIC in series [10] stood at 1 µg/mL (≈ 3.08 µM).
Turning to `CCCCC1CC(c2ccc(O)c(Cl)c2)(c2ccc(O)c(Cl)c2)C1` [Example 8, 1,1-Bis(4-hydroxy-3-chloro-phenyl)-3-n-butyl-yclobutane], the “MIC Anti-Bacterial Activity” value was 1 µg/mL (≈ 2.74 µM) in [1]; 1 µg/mL (≈ 2.74 µM) in series [2]; 1 µg/mL (≈ 2.74 µM) in series [3]; 1 µg/mL (≈ 2.74 µM) in series [4]; 31 µg/mL (≈ 84.9 µM) in series [5]; 1 µg/mL (≈ 2.74 µM) in series [6]. For the same molecule, the “MIC Anti-Bacterial Activity” value in series [7] turned out to be 3 µg/mL (≈ 8.21 µM); in series [8], 13 µg/mL (≈ 35.6 µM); in series [9] it was 3 µg/mL (≈ 8.21 µM). The “Antibacterial Activity against S. aureus MIC” value in series [10] (S. aureus) amounted to 0.5 µg/mL.
The molecule `CCCC1CC(c2ccc(O)c(C)c2)(c2ccc(O)c(C)c2)C1` [Example 1, 1,1-Bis(4-hydroxy-3-methylphenyl)-3-n-propyl-cyclobutane] registered a melting point of 130 to 132 °C. In addition, the MIC in series [1] was 3 µg/mL (≈ 9.66 µM). For the same molecule, the MIC in series [2] was 2 µg/mL (≈ 6.44 µM). Further, the MIC in [3] is 2 µg/mL (≈ 6.44 µM). The MIC in series [4] was 2 µg/mL (≈ 6.44 µM). For the same molecule, the MIC in series [6] turned out to be 3 µg/mL (≈ 9.66 µM). Besides, the MIC in [7] stood at 1 µg/mL (≈ 3.22 µM). The MIC in series [8] was determined as 6 µg/mL (≈ 19.3 µM). Besides, the MIC in series [9] was 6 µg/mL (≈ 19.3 µM). Further, in [10], the MIC is 1 µg/mL (≈ 3.22 µM).
In turn, `CCCC1CC(c2ccc(O)c(Cl)c2)(c2ccc(O)c(Cl)c2)C1` [Example 5, 1,1-Bis(4-hydroxy-3-chloro-phenyl)-3-n-propyl-cyclobutane] showed a melting point of 103 to 105 °C. Moreover, in series [1], the MIC was determined as 2 µg/mL (≈ 5.69 µM). Besides, in series [2], the MIC is 1 µg/mL (≈ 2.85 µM). The MIC in [3] came to 1 µg/mL (≈ 2.85 µM). Besides, the MIC in [4] stood at 1 µg/mL (≈ 2.85 µM). For the same molecule, in series [6], the MIC is 1 µg/mL (≈ 2.85 µM). For the same molecule, the MIC in [7] turned out to be 3 µg/mL (≈ 8.54 µM). In addition, in [8], the MIC came to 13 µg/mL (≈ 37 µM). For the same molecule, the MIC in [9] amounted to 3 µg/mL (≈ 8.54 µM). Moreover, the MIC in [10] is 1 µg/mL (≈ 2.85 µM).
As to `CCCCCC(C)(c1ccc(O)c(C)c1)c1ccc(O)c(C)c1` [Example 9, 2,2-Bis(4-hydroxy-3-methylphenyl)heptane], the MIC in series [6] came to 2 µg/mL (≈ 6.4 µM); in series [10] it was 1 µg/mL (≈ 3.2 µM). Moreover, the “reducing the population levels of pathogenic bacteria in wound” value in [11], in [12] and in series [13] was “efficacious” each time.

Source of the values: patent publication US20050148570A1, “Novel substituted alkane compounds and uses thereof” (priority 2001, published 2005).
